# Measurements published in patent US5360796A, “Imidazo[1,2-a]pyridinylalkyl phosphonic acid compounds for treatment of neurotoxic injury” (G. D. Searle & Co., priority 1991, dated 1994).
# How the values were obtained:
# [1] = test system: cGMP in cerebellum; assay: Assay for Effect on cGMP Levels in Cerebellum; assay type: in vivo, mouse (Swiss-Webster)
# Method: The purpose of this assay is to determine the extent of in vivo bioavailability and the potency as an NMDA antagonist of compound of the invention as compared to known NMDA antagonists, namely, 3(2-carboxypiperizine-4-yl)propyl-1-phosphonic acid (CPP) and cis-4-phosphonomethyl-2-piperidinecarboxylic acid (CGS 19755). Male Swiss-Webster mice (17-24 g were injected sub-cutaneously (s.c.) with compound of the invention and the known NMDA antagonist standards 30 minutes prior to sacrifice by focussed microwave irradiation. Groups consisted of 7-10 mice. Compounds of Ex. #7 was dissolved in isotonic saline and all compounds were administered in a volume of 0.2 ml per mouse. Cerebella samples were extracted in IN HCl. Hydrochloric acid in extracts of the cerebellum were freeze-dried for assay of cGMP with a commercial RIA kit (NEN). Statistics (Dunett's t-test) were performed as described previously [P. L. Wood et al., Neurochem., 19, 975-982 (1980)]. ED50 values were calculated from log-logit transformation of the dose-response data.
# [2] = molecular target: AMPA; assay: [3H]AMPA (QUIS) binding assay; set-up: species or system rat; conditions: 10 nM [3H]AMPA, 100 mM KSCN, synaptic plasma membranes, pH 7.4, 0-4° C., 10 min; read-out: NMDA Receptor Binding Data, Ki IC50 Binding AMPA
# Method: (§1) Synaptic plasma membranes (SPM) were prepared as previously described [Monahah, J. B. and Michel, J., "Identification and Characterization of an N-methyl-D-aspartate-specific L[^3 H]glutamate Recognition Site in Synaptic Plasma Membranes, J. Neurochem., 48, 1699-1708 (1987)]. The SPM were stored at a concentration of 10-15 mg/ml in 0.32M sucrose, 0.5 mM EDTA, 1 mM MgSO4, 5 mM Tris/SO4, pH 7.4, under liquid nitrogen. The identity and purity of the subcellular fractions were confirmed by both electron microscopy and marker enzymes. Protein concentrations were determined by using a modification of the method of Lowry [Ohnishi, S. T. and Barr, J. K., "A Simplified Method of Quantitating Proteins using the Biuret and Phenol Reagents", Anal. Biochem., 86, 193-197 (1978)]. The SPM were treated identically for the [^3 H]AMPA (QUIS), [^3 H]kainate and sodium-dependent L-[^3 H]-glumatate binding assays. The SPM were thawed at room temperature, diluted twenty-fold with 50mM Tris/acetate, pH 7.4, incubated at 37° C. for 30 minutes, and centrifuged at 100,000 g for 15 minutes. The dilution, incubation, and centrifugation was repeated a total of three times. Prior to use in the NMDA-specific L-[^3 H]-glutamate binding assay the SPM were thawed, diluted twenty fold with 50 mM Tris/acetate, pH 7.4 containing 0.04% (v/v) Triton X-100, incubated for 30 minutes at 37° C. and centrifuged as described above. The Triton X-100 treated membranes were washed with 50 mM Tris/acetate, pH 7.4 and centrifuged at 100,000 g for 15 minutes a total of four times. […] The basic procedure for the receptor subclass binding assays was similar. This general method involved adding the radioligand (12.5 nM L-[^3 H] glutamate; 0.5 nM [^3 H]kainate or 10 nM [^3 H]AMPA) to the appropriate concentration of the test compound and initiating the assay by the addition of ice cold synaptic plasma membranes (0.2-0.45 mg). The binding assays were performed in 1.5 mL centrifuge tubes with the total volume adjusted to 1.0 mL. Additions of test compounds were made in 50 mM Tris/acetate, pH 7.4 and incubations were carried out at 0°-4° C. The incubation time for the NMDA and the AMPA binding assays was 10 minutes, for the kainate binding assay 60 minutes and for the sodium-dependent glutamate binding assay 15 minutes. The AMPA binding assay contained 100 mM KSCN and the sodium-dependent glutamate binding assay contained 150 mM sodium acetate in addition to the previously described reagents. To terminate the incubation, the samples were centrifuged for 15 minutes at 12,000 g and 4° C. in a Beckman Microfuge 12. The supernatant was aspirated and the pelleted membranes dissolved in Beckman BTS-450 tissue solubilizer for a minimum of 6 hours at room temperature. Beckman MP scintillation cocktail containing 7 mL/1 acetic acid was then added and the samples counted on a Beckman LS 5800 or 3801 liquid scintillation counter with automatic corrections for quenching and counting efficiency. Nonspecific binding was defined as the residual binding in the presence of either excess L-glutamate (0.1-0.4 mM), kainate (0.01 mM), or NMDA (0.5 mM), and was 15-25% of the total binding in the NMDA binding assay, 19-27% in the AMPA binding assay, 20-30% in the kainate binding assay and 10-15% in the sodium-dependent binding assay. Radioligand binding to the synaptic plasma membranes was analyzed using Scatchard and Hill transformations and the Ki values of the compounds determined using logit-log transformations. Calculations and regression analysis were performed using templates developed for Lotus 1, 2, 3 as previously described [Pullan, L. M. "Automated Radioligand Receptor Binding Analysis with Templates for Lotus", Computer Appln. Biosci., 3, 131 (1987)]. Binding results are reported in Table I for example compounds of the invention.
# [3] = molecular target: NMDA receptor; assay: NMDA-Selective Glutamate Binding Assay (L-[3H]glutamate); set-up: species or system rat; conditions: 12.5 nM L-[3H]glutamate, synaptic plasma membranes, pH 7.4, 0-4° C., 10 min; read-out: NMDA Receptor Binding Data, Ki IC50 Binding NMDA
# Method: as §1
# [4] = test system: tonic hindlimb extensor seizures; assay: Anticonvulsant Assay (electroconvulsive shock); assay type: in vivo, mouse (CD-1); conditions: for Protected from ECS (% of Mice): 30 min prior to ECS
# Text: The screens were then slowly inverted. […] The current was held constant at 15 mA. […] There were 10 mice in each treatment group.
smiles,measurement,setting,value
"O=C(O)c1cn2c(CP(=O)(O)O)cccc2n1 [Example 7, 5-(phosphonomethyl)imidazo[1,2-a]pyridine-2-carboxylic acid]",ED50,"[1]; Mus musculus, sc, 0.5 h, 30 min prior to sacrifice, read-out: Decrease in cGMP ED50",18.3 mg/kg
same,brain bioavailability (in words),"[1]; by decrease of cGMP in mouse cerebellum, s.c.",brain bioavailable
same,potency relative to CPP (in words),"[1]; s.c., cerebellar cGMP",in the same range of potency as the known NMDA antagonist CPP
same,Ki,[2],> 300000 nM
same,Ki,[3],2400 nM
same,Protected from ECS (% of Mice),[4]; 10 mg/kg s.c.,20%
same,Protected from ECS (% of Mice),[4]; 32 mg/kg s.c.,60%
same,Protected from ECS (% of Mice),[4]; 56 mg/kg s.c.,90%
same,Protected from ECS (% of Mice),[4]; 100 mg/kg s.c.,100%
same,ED50,"[4]; Mus musculus, sc, 0.5 h, s.c., doses in mg/kg, 95% CI 12.3-32.9, read-out: Protected from ECS ED50",21.8 mg/kg
same,protection against tonic hindlimb extensor seizures (in words),[4]; s.c.,protected against tonic hindlimb extensor seizures in a dose-dependent fashion
